Assay results taken from the supplement of paper PMC10331698.
± gives the standard deviation of the averaged measurements.

Assays:
Assay in all cases: level (log10 ratio to DMSO vehicle control); higher = higher biomarker level / cell amount than vehicle control
[1] = compound: O=C(O)C(F)(F)OC(F)(F)C(F)(F)OC(F)(F)C(F)(F)OC(F)(F)C(F)(F)C(F)(F)C(F)(F)F [Perfluoro-3,6,9-trioxatridecanoic acid] (in DMSO); settings: 6700 nM
Experimental: (§1)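 BioMAP Diversity Plus panel of 12 human primary cell co-culture systems (3C, 4H, LPS, SAg, BT, BF4T, BE3C, CASM3C, HDF3CGF, KF3CT, MyoF, Mphg). Compounds were added 1 h before stimulation and left for 24 h (MyoF 48 h; BT 72 h for soluble read-outs or 6 d for IgG). Biomarkers were read by ELISA, cytotoxicity by SRB, PBMC viability and proliferation by Alamar Blue. Each well value was divided by the mean of 8 DMSO control wells on the same plate and log10 transformed; duplicate blinded samples were tested at 4 concentrations.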

Perfluoroundecanoic acid = compound: O=C(O)C(F)(F)C(F)(F)C(F)(F)C(F)(F)C(F)(F)C(F)(F)C(F)(F)C(F)(F)C(F)(F)C(F)(F)F [Perfluoroundecanoic acid] (in DMSO); settings: 6700 nM
Experimental: as §1

[2] = compound: C=C(C)C(=O)OCCC(F)(F)C(F)(F)C(F)(F)C(F)(F)C(F)(F)C(F)(F)C(F)(F)C(F)(F)F [8:2 Fluorotelomer methacrylate] (in DMSO)
Experimental: as §1

[3] = compound: OCCC(F)(F)C(F)(F)C(F)(F)C(F)(F)F [4:2 Fluorotelomer alcohol] (in DMSO)
Experimental: as §1

[4] = compound: O=C(O)C=C(C(F)(F)F)C(F)(F)F [3,3-Bis(trifluoromethyl)-2-propenoic acid] (in DMSO)
Experimental: as §1

[5] = compound: O=C(O)C(F)(F)C(F)(F)C(F)(F)OC(F)(F)F [Perfluoro(4-methoxybutanoic) acid] (in DMSO)
Experimental: as §1

[6] = compound: O=S(=O)(O)C(F)(F)C(F)(F)OC(F)(F)C(F)(F)F [Perfluoro(2-ethoxyethane)sulfonic acid] (in DMSO)
Experimental: as §1

[7] = compound: OCC(F)(F)C(F)(F)C(F)(F)C(F)F [1H,1H,5H-Perfluoropentanol] (in DMSO)
Experimental: as §1

Test System	level (log10) [1]	level (log10) (Perfluoroundecanoic acid)	level (log10) ([2]; 6700 nM)	level (log10) ([2]; 20000 nM)	level (log10) ([3]; 6700 nM)	level (log10) ([3]; 20000 nM)	level (log10) ([3]; 60000 nM)	level (log10) ([4]; 6700 nM)	level (log10) ([4]; 20000 nM)	level (log10) ([4]; 60000 nM)	level (log10) ([5]; 6700 nM)	level (log10) ([5]; 20000 nM)	level (log10) ([5]; 60000 nM)	level (log10) ([6]; 6700 nM)	level (log10) ([6]; 20000 nM)	level (log10) ([6]; 60000 nM)	level (log10) ([7]; 6700 nM)	level (log10) ([7]; 20000 nM)	level (log10) ([7]; 60000 nM)
3C:CD87/uPAR	0.0095 ± 0.028	-0.0125 ± 0.005	0.046 ± 0.018	0.049 ± 0.013	-0.015 ± 0.014	-0.0215 ± 0.028	0.005 ± 0.0071	0.0225 ± 0.0035	0.014 ± 0.02	-0.0035 ± 0.013	-0.03 ± 0.058	-0.035 ± 0.051	-0.0265 ± 0.04	0.0105 ± 0.0064	0.0165 ± 0.0021	0.007 ± 0.0071	-0.0135 ± 0.019	0.0015 ± 0.011	-0.0095 ± 0.013
3C:CXCL8/IL-8	-0.003 ± 0.027	-0.022 ± 0.02	-0.005 ± 0.017	0.0305 ± 0.012	-0.002	0.017 ± 0.031	0.044 ± 0.059	0.038 ± 0.02	0.0255 ± 0.04	0.061 ± 0.071	0.008 ± 0.014	0.001 ± 0.0099	0.022 ± 0.025	0.0295 ± 0.028	0.0455 ± 0.074	0.095 ± 0.062	0.0115 ± 0.023	0.0035 ± 0.03	0.0545 ± 0.063
3C:CXCL9/MIG	0.0115 ± 0.00071	0.0025 ± 0.005	-0.002 ± 0.0028	0.0055 ± 0.0035	-0.01 ± 0.0057	-0.0025 ± 0.0078	0 ± 0.0042	-0.015 ± 0.017	-0.004 ± 0.028	0.013 ± 0.025	-0.012 ± 0.013	-0.012 ± 0.017	-0.001 ± 0.013	-0.0005 ± 0.0064	-0.0045 ± 0.0035	0.0075 ± 0.0021	0 ± 0.0057	-0.0035 ± 0.0064	0.0105 ± 0.00071
3C:HLA-DR	-0.018 ± 0.04	-0.023 ± 0.0014	-0.0035 ± 0.035	0.0115 ± 0.028	-0.019	-0.0145 ± 0.0092	0 ± 0.011	-0.012 ± 0.014	-0.0415 ± 0.039	-0.189 ± 0.031	0.0105 ± 0.013	0.0055 ± 0.023	0.0015 ± 0.016	-0.005	-0.0045 ± 0.005	0.008 ± 0.0099	-0.02 ± 0.0028	-0.0075 ± 0.025	0.0385 ± 0.023
3C:Proliferation	0.0425 ± 0.016	0.027 ± 0.013	-0.0315 ± 0.005	-0.07 ± 0.034	-0.011 ± 0.014	-0.0175 ± 0.032	0.013 ± 0.024	-0.0425 ± 0.0021	-0.089 ± 0.02	-0.189 ± 0.1	-0.057 ± 0.023	-0.0055 ± 0.046	-0.036 ± 0.03	-0.043 ± 0.025	-0.027 ± 0.034	-0.0325 ± 0.042	-0.0045 ± 0.066	0.005 ± 0.0071	-0.033 ± 0.093
3C:SRB	-0.002 ± 0.014	0.0095 ± 0.015	-0.0205 ± 0.0035	-0.01 ± 0.021	-0.006 ± 0.0085	-0.0065 ± 0.011	-0.0045 ± 0.0092	0.0105 ± 0.019	-0.005 ± 0.025	-0.062 ± 0.03	-0.0175 ± 0.018	-0.0255 ± 0.018	-0.0195 ± 0.0064	-0.022 ± 0.0042	-0.0025 ± 0.00071	-0.0275 ± 0.0021	-0.011	-0.006 ± 0.03	-0.015 ± 0.011
4H:CCL2/MCP-1	-0.029 ± 0.0099	-0.024 ± 0.023	-0.0075 ± 0.053	0.027 ± 0.034	-0.101 ± 0.0071	-0.0325 ± 0.0064	0.0115 ± 0.025	-0.051 ± 0.035	-0.0675 ± 0.005	-0.081 ± 0.052	-0.0235 ± 0.013	-0.026 ± 0.0028	0.0005 ± 0.061	-0.019 ± 0.05	-0.008 ± 0.021	-0.0015 ± 0.016	-0.0265 ± 0.046	-0.0115 ± 0.033	0.039 ± 0.055
4H:CCL26/Eotaxin-3	-0.007 ± 0.038	0.016 ± 0.03	0.0035 ± 0.037	0 ± 0.02	-0.018 ± 0.016	-0.0045 ± 0.0035	-0.0015 ± 0.0035	-0.02 ± 0.044	-0.042 ± 0.0042	-0.121 ± 0.0064	0.018 ± 0.0085	0.0205 ± 0.013	0.0245 ± 0.023	0.049 ± 0.027	0.0585 ± 0.0078	0.0405 ± 0.00071	-0.008 ± 0.011	0.008 ± 0.0085	-0.005 ± 0.0071
4H:CD62P/P-selectin	0.033 ± 0.023	0.064 ± 0.0028	-0.02 ± 0.02	-0.0375 ± 0.0035	-0.0235 ± 0.037	-0.02 ± 0.0071	0.025 ± 0.023	0.005 ± 0.0042	-0.0505 ± 0.022	-0.164 ± 0.028	0.0035 ± 0.0078	0.033 ± 0.068	-0.005 ± 0.059	-0.02 ± 0.014	0.0445 ± 0.005	-0.0105 ± 0.015	-0.0245 ± 0.0021	0.0205 ± 0.061	0.027 ± 0.038
4H:CD87/uPAR	0.0145 ± 0.03	-0.008 ± 0.025	-0.0325 ± 0.0035	-0.0345 ± 0.042	-0.026 ± 0.011	-0.0105 ± 0.023	-0.005 ± 0.0028	-0.053 ± 0.038	-0.0455 ± 0.037	-0.025 ± 0.062	0.0495 ± 0.039	0.035 ± 0.048	0.046 ± 0.04	0.017 ± 0.062	0.0005 ± 0.049	0.0065 ± 0.059	-0.0225 ± 0.0092	0.0025 ± 0.019	0.007 ± 0.034
4H:CD106/VCAM-1	-0.023 ± 0.0085	-0.03 ± 0.0057	-0.035 ± 0.018	-0.0485 ± 0.0064	-0.025 ± 0.023	-0.0105 ± 0.013	0.0085 ± 0.0078	-0.12 ± 0.037	-0.143 ± 0.017	-0.25 ± 0.028	-0.0105 ± 0.012	-0.0075 ± 0.005	-0.002 ± 0.018	-0.0085 ± 0.00071	0.0075 ± 0.037	0.01 ± 0.033	-0.0075 ± 0.0035	0.0115 ± 0.0021	0.018 ± 0.021
4H:SRB	0.0035 ± 0.0092	-0.0105 ± 0.011	-0.0205 ± 0.028	-0.0105 ± 0.042	-0.0005 ± 0.012	-0.004 ± 0.0014	0.0135 ± 0.015	-0.008 ± 0.0042	-0.026 ± 0.027	-0.0615 ± 0.015	-0.01 ± 0.0014	-0.018 ± 0.0099	-0.0155 ± 0.0021	-0.015 ± 0.0057	-0.0035 ± 0.0021	-0.016 ± 0.023	-0.003 ± 0.0014	0.011 ± 0.0042	0.0065 ± 0.005
4H:VEGFR2	-0.0515 ± 0.047	-0.008 ± 0.0085	0.028 ± 0.023	0.015 ± 0.05	-0.071 ± 0.035	-0.021 ± 0.033	-0.0205 ± 0.0064	-0.02	-0.019 ± 0.0099	-0.04 ± 0.0057	0.009 ± 0.033	0.019 ± 0.038	0.0075 ± 0.011	0.009 ± 0.086	0.028 ± 0.057	0.0365 ± 0.12	-0.021 ± 0.028	-0.0215 ± 0.0021	0.0395 ± 0.073
BE3C:CD54/ICAM-1	-0.688 ± 0.018	0.004 ± 0.016	-0.012 ± 0.018	0.002 ± 0.061	-0.019 ± 0.024	-0.008 ± 0.0057	0.01 ± 0.0028	-0.004 ± 0.017	0.0025 ± 0.0021	0.031 ± 0.04	-0.0015 ± 0.013	-0.007 ± 0.0085	-0.007 ± 0.017	0.001 ± 0.011	-0.0115 ± 0.0092	-0.022 ± 0.017	0.0095 ± 0.042	0.02 ± 0.0014	0.0175 ± 0.028
